Data published in PubChem BioAssay (NCI).
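Exposure lasted 48 hours, with cells grown in 96-well plates and compounds tested at five concentrations. At the TGI there is no net growth.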

How the values were obtained:
Assay in all cases: inhibition of tumour cell growth, NCI panel, 48 h
BT-549 breast = tested on: BT-549 breast
HCT-15 colon = tested on: HCT-15 colon
HOP-92 NSCLC = tested on: HOP-92 NSCLC
HT29 colon = tested on: HT29 colon
IGROV1 ovarian = tested on: IGROV1 ovarian
NCI/ADR-RES ovarian = tested on: NCI/ADR-RES ovarian
OVCAR-4 ovarian = tested on: OVCAR-4 ovarian
PC-3 prostate = tested on: PC-3 prostate
SF-295 CNS = tested on: SF-295 CNS
SF-539 CNS = tested on: SF-539 CNS

COc1cc(/C=C\c2ccc(SC)cc2)cc(OC)c1OC
TGI (BT-549 breast): > 100 µM
TGI (HCT-15 colon): 29.4 µM
TGI (HOP-92 NSCLC): > 46.1 µM
TGI (HT29 colon): 0.59 µM
TGI (IGROV1 ovarian): > 17.1 µM
TGI (NCI/ADR-RES ovarian): > 100 µM
TGI (OVCAR-4 ovarian): > 100 µM
TGI (PC-3 prostate): > 100 µM
TGI (SF-295 CNS): < 0.0204 µM
TGI (SF-539 CNS): 0.0364 µM

CCOc1ccc(N=NC2C(=O)N(C(=O)CC(=O)Nc3ccc(Cl)cc3)N=C2C)cc1 (stereo not drawn)
TGI (BT-549 breast): > 100 µM
TGI (HOP-92 NSCLC): > 100 µM
TGI (HT29 colon): > 100 µM
TGI (IGROV1 ovarian): > 100 µM
TGI (NCI/ADR-RES ovarian): > 100 µM
TGI (OVCAR-4 ovarian): > 100 µM
TGI (PC-3 prostate): > 100 µM
TGI (SF-295 CNS): > 100 µM
TGI (SF-539 CNS): > 100 µM

NS(=O)(=O)c1ccc(CNC(=S)NC(=O)Nc2ccc(Cl)c(Cl)c2)cc1
TGI (BT-549 breast): 34.7 µM
TGI (HCT-15 colon): 31.8 µM
TGI (HOP-92 NSCLC): 52.9 µM
TGI (HT29 colon): 61.1 µM
TGI (IGROV1 ovarian): 50.5 µM
TGI (NCI/ADR-RES ovarian): 41.1 µM
TGI (OVCAR-4 ovarian): > 100 µM
TGI (PC-3 prostate): 25.2 µM
TGI (SF-295 CNS): 33.2 µM
TGI (SF-539 CNS): 41.5 µM

CCN(CC)P1(=S)Oc2ccc3ccccc3c2-c2c(ccc3ccccc23)O1
TGI (BT-549 breast): > 100 µM
TGI (HCT-15 colon): > 100 µM
TGI (HOP-92 NSCLC): > 100 µM
TGI (HT29 colon): > 100 µM
TGI (IGROV1 ovarian): > 100 µM
TGI (NCI/ADR-RES ovarian): > 100 µM
TGI (OVCAR-4 ovarian): > 100 µM
TGI (PC-3 prostate): > 100 µM
TGI (SF-295 CNS): > 100 µM
TGI (SF-539 CNS): > 100 µM

CCOC(=O)C1(C(=O)OCC)C[C@H]2CON=C2[C@@H]1c1ccc(C(F)(F)F)cc1
TGI (BT-549 breast): > 100 µM
TGI (HCT-15 colon): > 100 µM
TGI (HOP-92 NSCLC): > 100 µM
TGI (HT29 colon): > 100 µM
TGI (IGROV1 ovarian): 28.9 µM
TGI (NCI/ADR-RES ovarian): > 100 µM
TGI (OVCAR-4 ovarian): 61.4 µM
TGI (PC-3 prostate): > 100 µM
TGI (SF-295 CNS): > 100 µM
TGI (SF-539 CNS): > 100 µM

Cc1cc(SCC(=O)c2ccc(Br)cc2)cc(C)[o+]1
TGI (BT-549 breast): 98.4 µM
TGI (HCT-15 colon): > 100 µM
TGI (HOP-92 NSCLC): 74.8 µM
TGI (HT29 colon): 65.2 µM
TGI (IGROV1 ovarian): > 100 µM
TGI (NCI/ADR-RES ovarian): 88.3 µM
TGI (OVCAR-4 ovarian): 83.7 µM
TGI (PC-3 prostate): > 100 µM
TGI (SF-295 CNS): 65.6 µM
TGI (SF-539 CNS): 44.5 µM

COC(=O)c1nc2c(C)c(O)c(O)c([C@H](C)CCC=C(C)C)c2o1
TGI (BT-549 breast): > 100 µM
TGI (HCT-15 colon): > 100 µM
TGI (HOP-92 NSCLC): 66.7 µM
TGI (HT29 colon): 37 µM
TGI (IGROV1 ovarian): 48.1 µM
TGI (NCI/ADR-RES ovarian): > 100 µM
TGI (OVCAR-4 ovarian): > 100 µM
TGI (PC-3 prostate): 93.5 µM
TGI (SF-295 CNS): 47 µM
TGI (SF-539 CNS): 35.7 µM

COc1ccc(N(C(=O)OC(C)(C)C)[C@@H]2C(C)=C[C@H]([S@@](=O)c3ccc(C)cc3)[C@@H]3C(=O)N(C)C(=O)[C@@H]32)cc1
TGI (BT-549 breast): 33.9 µM
TGI (HCT-15 colon): > 100 µM
TGI (HOP-92 NSCLC): 61.5 µM
TGI (HT29 colon): 45.5 µM
TGI (IGROV1 ovarian): 23.1 µM
TGI (NCI/ADR-RES ovarian): 52.1 µM
TGI (OVCAR-4 ovarian): 34.2 µM
TGI (PC-3 prostate): > 100 µM
TGI (SF-295 CNS): 35.9 µM
TGI (SF-539 CNS): 43.5 µM

COc1ccc2c(c1)CCC(CN1CCN(CCOC(c3ccc(F)cc3)c3ccc(F)cc3)CC1)=C2
TGI (BT-549 breast): 35.6 µM
TGI (HCT-15 colon): 57.8 µM
TGI (HOP-92 NSCLC): 42 µM
TGI (HT29 colon): 32.4 µM
TGI (IGROV1 ovarian): > 100 µM
TGI (NCI/ADR-RES ovarian): 38.4 µM
TGI (OVCAR-4 ovarian): > 100 µM
TGI (PC-3 prostate): > 100 µM
TGI (SF-295 CNS): 87.2 µM
TGI (SF-539 CNS): 42.3 µM

CC(C)C[C@H](NC(=O)[C@@H](Cc1cccc2ccccc12)NC(=O)N1CCOCC1)B(O)O
TGI (BT-549 breast): 18.1 µM
TGI (HCT-15 colon): 50.1 µM
TGI (HOP-92 NSCLC): 8.55 µM
TGI (HT29 colon): 8.86 µM
TGI (IGROV1 ovarian): 23.5 µM
TGI (NCI/ADR-RES ovarian): > 100 µM
TGI (OVCAR-4 ovarian): > 57.8 µM
TGI (PC-3 prostate): 24.9 µM
TGI (SF-295 CNS): 43.8 µM
TGI (SF-539 CNS): 4.61 µM

C[N+](C)(C)CCCCCc1c2nc(c(CCCCC[N+](C)(C)C)c3ccc([nH]3)c(CCCCC[N+](C)(C)C)c3ccc([nH]3)c(CCCCC[N+](C)(C)C)c3nc1C=C3)C=C2
TGI (BT-549 breast): > 100 µM
TGI (HCT-15 colon): > 100 µM
TGI (HOP-92 NSCLC): > 100 µM
TGI (HT29 colon): > 100 µM
TGI (IGROV1 ovarian): > 100 µM
TGI (NCI/ADR-RES ovarian): > 100 µM
TGI (OVCAR-4 ovarian): > 100 µM
TGI (PC-3 prostate): > 100 µM
TGI (SF-295 CNS): > 100 µM
TGI (SF-539 CNS): > 100 µM

CC(C)(C)[Si](C)(C)OCC1OC(n2ccc(=O)[nH]c2=O)C(O[Si](C)(C)C(C)(C)C)/C1=N/O (stereo not drawn)
TGI (BT-549 breast): > 40.5 µM
TGI (HCT-15 colon): 12.1 µM
TGI (HOP-92 NSCLC): 8.95 µM
TGI (HT29 colon): 9.82 µM
TGI (IGROV1 ovarian): 15.6 µM
TGI (NCI/ADR-RES ovarian): 8.79 µM
TGI (OVCAR-4 ovarian): 17.8 µM
TGI (PC-3 prostate): 13.7 µM
TGI (SF-295 CNS): > 40.7 µM
TGI (SF-539 CNS): 10.9 µM

NC12c3c4cccc3Oc3cccc(c31)Oc1cccc(c12)O4
TGI (BT-549 breast): > 50 µM
TGI (HCT-15 colon): > 50 µM
TGI (HOP-92 NSCLC): > 50 µM
TGI (HT29 colon): > 50 µM
TGI (IGROV1 ovarian): > 50 µM
TGI (NCI/ADR-RES ovarian): > 50 µM
TGI (OVCAR-4 ovarian): > 50 µM
TGI (PC-3 prostate): > 50 µM
TGI (SF-295 CNS): > 50 µM
TGI (SF-539 CNS): > 50 µM

CC1(C)OC1CC/C(=C/CBr)CBr (stereo not drawn)
TGI (BT-549 breast): 30.4 µM
TGI (HOP-92 NSCLC): 29.4 µM
TGI (HT29 colon): 30 µM
TGI (IGROV1 ovarian): 27.3 µM
TGI (NCI/ADR-RES ovarian): 49.6 µM
TGI (OVCAR-4 ovarian): 32.1 µM
TGI (PC-3 prostate): 29.3 µM
TGI (SF-295 CNS): 27.6 µM
TGI (SF-539 CNS): 32.2 µM

c1ccc(/C(=N/Nc2cnccn2)c2ncccn2)cc1
TGI (BT-549 breast): > 100 µM
TGI (HCT-15 colon): > 100 µM
TGI (HOP-92 NSCLC): > 100 µM
TGI (HT29 colon): > 100 µM
TGI (IGROV1 ovarian): > 100 µM
TGI (NCI/ADR-RES ovarian): > 100 µM
TGI (OVCAR-4 ovarian): > 100 µM
TGI (PC-3 prostate): > 100 µM
TGI (SF-295 CNS): > 100 µM
TGI (SF-539 CNS): > 100 µM

Cc1ccc(S(=O)/C=C(\NC(=O)OCc2ccccc2)C(F)(F)F)cc1 (stereo not drawn)
TGI (BT-549 breast): > 100 µM
TGI (HCT-15 colon): > 100 µM
TGI (HOP-92 NSCLC): > 100 µM
TGI (HT29 colon): > 100 µM
TGI (IGROV1 ovarian): > 100 µM
TGI (NCI/ADR-RES ovarian): > 100 µM
TGI (OVCAR-4 ovarian): > 100 µM
TGI (PC-3 prostate): > 100 µM
TGI (SF-295 CNS): > 100 µM
TGI (SF-539 CNS): 92.9 µM

CC(C)(C)c1cc(C2COC(=O)COCCOCC(=O)OCCOCCO2)cc(C(C)(C)C)c1O (stereo not drawn)
TGI (BT-549 breast): > 77.7 µM
TGI (HCT-15 colon): > 100 µM
TGI (HOP-92 NSCLC): 59.4 µM
TGI (HT29 colon): > 100 µM
TGI (IGROV1 ovarian): > 100 µM
TGI (NCI/ADR-RES ovarian): > 100 µM
TGI (OVCAR-4 ovarian): > 100 µM
TGI (PC-3 prostate): 63.3 µM
TGI (SF-295 CNS): 53.7 µM
TGI (SF-539 CNS): > 100 µM

CC(C)(C)[C@@H]1NC(=O)CN1C(=O)OCc1ccccc1
TGI (BT-549 breast): > 100 µM
TGI (HCT-15 colon): > 100 µM
TGI (HOP-92 NSCLC): > 100 µM
TGI (HT29 colon): > 100 µM
TGI (IGROV1 ovarian): > 100 µM
TGI (NCI/ADR-RES ovarian): > 100 µM
TGI (OVCAR-4 ovarian): > 100 µM
TGI (PC-3 prostate): > 100 µM
TGI (SF-295 CNS): > 100 µM
TGI (SF-539 CNS): > 100 µM

CCOC(=O)Nc1ccc(S(=O)(=O)Nc2ccc(Br)cc2)cc1
TGI (BT-549 breast): > 100 µM
TGI (HCT-15 colon): > 100 µM
TGI (HOP-92 NSCLC): > 100 µM
TGI (HT29 colon): > 100 µM
TGI (IGROV1 ovarian): > 100 µM
TGI (NCI/ADR-RES ovarian): > 100 µM
TGI (OVCAR-4 ovarian): 57.1 µM
TGI (PC-3 prostate): > 100 µM
TGI (SF-295 CNS): 97.8 µM
TGI (SF-539 CNS): 35.4 µM
